# Like-named read-outs stand apart in the source and are kept apart here.
# How the values were obtained:
# [1] = tested on: Staphylococcus aureus X1.1; assay: MIC, standard agar-dilution assay, Staphylococcus aureus X1.1; assay type: cell-based
# [2] = tested on: Staphylococcus aureus X400; assay: MIC, standard agar-dilution assay, Staphylococcus aureus X400; assay type: cell-based
# [3] = tested on: Staphylococcus aureus S13E; assay: MIC, standard agar-dilution assay, Staphylococcus aureus S13E; assay type: cell-based
# [4] = tested on: Staphylococcus epidermidis EPI1; assay: MIC, standard agar-dilution assay, Staphylococcus epidermidis EPI1; assay type: cell-based
# [5] = tested on: Staphylococcus epidermidis EPI2; assay: MIC, standard agar-dilution assay, Staphylococcus epidermidis EPI2; assay type: cell-based
# [6] = tested on: Streptococcus pyogenes C203; assay: MIC, standard agar-dilution assay, Streptococcus pyogenes C203; assay type: cell-based
# [7] = tested on: Streptococcus Group D X66; assay: MIC, standard agar-dilution assay, Streptococcus Group D X66; assay type: cell-based
# Streptococcus Group 9960 = assay: MIC, standard agar-dilution assay, Streptococcus Group 9960; assay type: cell-based
# [8] = tested on: Haemophilus influenzae Holt; assay: MIC, standard agar-dilution assay, Haemophilus influenzae Holt; assay type: cell-based; details: Haemophilus influenzae Holt, ampicillin-sensitive strain
# [9] = tested on: Haemophilus influenzae R252; assay: MIC, standard agar-dilution assay, Haemophilus influenzae R252; assay type: cell-based
# Staphylococcus aureus = assay: MIC, broth-dilution microtiter test, Staphylococcus aureus; assay type: cell-based
# Excerpt: (§1) The MIC's in Table X were obtained using conventional broth-dilution microtiter tests.
# Streptococcus bovis 80 = assay: MIC, broth-dilution microtiter test, Streptococcus bovis 80; assay type: cell-based; details: Streptococcus bovis 80, broth-dilution microtiter
# Excerpt: as §1
# [10] = tested on: Pasteurella multocida 17E; assay: MIC, broth-dilution microtiter test, Pasteurella multocida 17E; assay type: cell-based; details: Pasteurella multocida 17E, bovine isolate, broth-dilution microtiter
# Excerpt: as §1
# [11] = tested on: Pasteurella multocida 60A; assay: MIC, broth-dilution microtiter test, Pasteurella multocida 60A; assay type: cell-based; details: Pasteurella multocida 60A, avian isolate, broth-dilution microtiter
# Excerpt: as §1
# [12] = tested on: Pasteurella hemolytica 22C; assay: MIC, broth-dilution microtiter test, Pasteurella hemolytica 22C; assay type: cell-based; details: Pasteurella hemolytica 22C, broth-dilution microtiter
# Excerpt: as §1
# Mycoplasma gallisepticum = assay: MIC, broth-dilution microtiter test, Mycoplasma gallisepticum; assay type: cell-based
# Excerpt: as §1
# Mycoplasma synoviae = assay: MIC, broth-dilution microtiter test, Mycoplasma synoviae; assay type: cell-based
# Excerpt: as §1
# Mycoplasma hyorhinis = assay: MIC, broth-dilution microtiter test, Mycoplasma hyorhinis; assay type: cell-based
# Excerpt: as §1
# Mycoplasma hyopneumoniae = assay: MIC, broth-dilution microtiter test, Mycoplasma hyopneumoniae; assay type: cell-based; details: Mycoplasma hyopneumoniae, broth-dilution microtiter
# Excerpt: as §1
# [13] = tested on: Streptococcus pyogenes C203; assay: In vivo protection of mice experimentally infected with S. pyogenes C203; details: mice, doses given 1 and 4 hours post-infection
# Method: The C-20 modified derivatives of this invention have shown in vivo antimicrobial activity against experimentally-induced infections in laboratory animals. When two doses of test compound were administered to mice experimentally infected with S. pyogenes C203, the activity observed was measured as an ED50 value [effective dose in mg/kg to protect 50% of the test animals: see Warren Wick, et al., J. Bacteriol. 81, 233-235 (1961)].
# [14] = tested on: Staphylococcus aureus V41; assay: MIC, standard agar-dilution assay, Staphylococcus aureus V41; assay type: cell-based; details: Staphylococcus aureus, V41
# [15] = tested on: Streptococcus pneumoniae Park I; assay: microbe, parasite or virus in culture; assay type: cell-based
# [16] = Staphylococcus epidermidis, EPI2
# [17] = GROUP9960, Streptococcus Group 9960, agar dilution, read-out: MIC
# [18] = Streptococcus equinus, read-out: MIC
# [19] = Mycoplasmoides gallisepticum, Mycoplasma gallisepticum, broth-dilution microtiter, read-out: MIC
# [20] = Mycoplasmopsis synoviae, Mycoplasma synoviae, broth-dilution microtiter, read-out: MIC
# [21] = Mycoplasma hyorhinis, broth-dilution microtiter, read-out: MIC
# [22] = Mesomycoplasma hyopneumoniae, read-out: MIC
# [23] = Staphylococcus epidermidis, EPI1
# [24] = Streptococcus Group D X66, agar dilution, read-out: MIC
molecule,measurement,setting,value
20-DH-20-O-(Phenylsulfinyl)desmycosin [Compound 25],MIC,"[1]; Staphylococcus aureus X1.1, agar dilution",0.25 µg/mL
same,MIC,"[2]; Staphylococcus aureus X400, methicillin-resistant strain, agar dilution",0.25 µg/mL
same,MIC,"[3]; Staphylococcus aureus S13E, agar dilution",0.25 µg/mL
same,MIC,"[4]; Staphylococcus epidermidis EPI1, agar dilution",0.25 µg/mL
same,MIC,"[5]; Staphylococcus epidermidis EPI2, agar dilution",0.12 µg/mL
same,MIC,"[6]; Streptococcus pyogenes C203, agar dilution",0.25 µg/mL
same,MIC,"[7]; Streptococcus Group D X66, agar dilution",4 µg/mL
same,MIC,"Streptococcus Group 9960; Streptococcus Group 9960, agar dilution",4 µg/mL
same,MIC,[8]; agar dilution,8 µg/mL
same,MIC,"[9]; Haemophilus influenzae R252, ampicillin-resistant strain, agar dilution",4 µg/mL
same,MIC,Staphylococcus aureus; broth-dilution microtiter,0.39 µg/mL
same,MIC,Streptococcus bovis 80,3.12 µg/mL
same,MIC,[10],12.5 µg/mL
same,MIC,[11],6.25 µg/mL
same,MIC,[12],12.5 µg/mL
same,MIC,"Mycoplasma gallisepticum; Mycoplasma gallisepticum, broth-dilution microtiter",< 0.05 µg/mL
same,MIC,"Mycoplasma synoviae; Mycoplasma synoviae, broth-dilution microtiter",0.19 µg/mL
same,MIC,"Mycoplasma hyorhinis; Mycoplasma hyorhinis, broth-dilution microtiter","-- (Not active at 50 mcg/ml, the highest level tested)"
same,MIC,Mycoplasma hyopneumoniae,12.5 µg/mL
same,"ED50, Oral",[13]; oral,45 mg/kg × 2
same,"ED50, Subcutaneous",[13]; subcutaneous,5.0 mg/kg × 2
"CCC1OC(=O)CC(O)C(C)C(OC2OC(C)C(OC3CC(C)(O)C(O)C(C)O3)C(N(C)C)C2O)C(CCSc2ccccc2)CC(C)C(=O)C=CC(C)=CC1COC1OC(C)C(O)C(OC)C1OC (stereo not drawn) [Compound 6, 20-DH-DO-20-(Phenylthio)tylosin]",MIC,"[1]; Staphylococcus aureus, X1.1",1 µg/mL
same,MIC,[14],1 µg/mL
same,MIC,"[2]; Staphylococcus aureus X400, methicillin-resistant strain, agar dilution, read-out: MIC",2 µg/mL
same,MIC,"[3]; Staphylococcus aureus, S13E",1 µg/mL
same,MIC,"[4]; Staphylococcus epidermidis EPI1, agar dilution, read-out: MIC",2 µg/mL
same,MIC,[5]; [16],1 µg/mL
same,MIC,"[6]; Streptococcus pyogenes, C203",4 µg/mL
same,MIC,[15]; Streptococcus pneumoniae,64 µg/mL
same,MIC,[7],> 128 µg/mL
same,MIC,Streptococcus Group 9960; [17],> 128 µg/mL
same,MIC,[8]; read-out: MIC,> 128 µg/mL
same,MIC,"[9]; Haemophilus influenzae R252, ampicillin-resistant strain, read-out: MIC",> 128 µg/mL
same,MIC,Staphylococcus aureus,3.12 µg/mL
same,MIC,Streptococcus bovis 80; [18],> 50 µg/mL
same,MIC,[10]; read-out: MIC,> 50 µg/mL
same,MIC,[11]; read-out: MIC,> 50 µg/mL
same,MIC,[12]; read-out: MIC,> 50 µg/mL
same,MIC,Mycoplasma gallisepticum; [19],0.78 µg/mL
same,MIC,Mycoplasma synoviae; [20],12.5 µg/mL
same,MIC,Mycoplasma hyorhinis; [21],> 50 µg/mL
same,MIC,Mycoplasma hyopneumoniae; [22],> 25 µg/mL
"CCC1OC(=O)CC(O)C(C)C(OC2OC(C)C(OC3CC(C)(O)C(O)C(C)O3)C(N(C)C)C2O)C(CCF)CC(C)C(=O)C=CC(C)=CC1COC1OC(C)C(O)C(OC)C1OC (stereo not drawn) [Compound 8, 20-DH-DO-20-Fluoro-tylosin]",MIC,"[1]; Staphylococcus aureus, X1.1",1 µg/mL
same,MIC,[14],1 µg/mL
same,MIC,"[2]; Staphylococcus aureus, X400",2 µg/mL
same,MIC,"[3]; Staphylococcus aureus, S13E",1 µg/mL
same,MIC,[4]; [23],1 µg/mL
same,MIC,[5]; [16],1 µg/mL
same,MIC,"[6]; Streptococcus pyogenes C203, agar dilution, read-out: MIC",4 µg/mL
same,MIC,[15]; Streptococcus pneumoniae,64 µg/mL
same,MIC,[7]; [24],> 128 µg/mL
same,MIC,Streptococcus Group 9960; [17],> 128 µg/mL
same,MIC,[8]; read-out: MIC,> 128 µg/mL
same,MIC,"[9]; Haemophilus influenzae, R252",128 µg/mL
same,MIC,Staphylococcus aureus,1.56 µg/mL
same,MIC,Streptococcus bovis 80; [18],> 50 µg/mL
same,MIC,[10]; read-out: MIC,> 50 µg/mL
same,MIC,[11]; read-out: MIC,> 50 µg/mL
same,MIC,[12]; read-out: MIC,> 50 µg/mL
same,MIC,Mycoplasma gallisepticum; Mycoplasmoides gallisepticum,1.56 µg/mL
same,MIC,Mycoplasma synoviae; [20],12.5 µg/mL
same,MIC,Mycoplasma hyorhinis; [21],> 50 µg/mL
same,MIC,Mycoplasma hyopneumoniae; [22],> 25 µg/mL
"CCC1OC(=O)CC(O)C(C)C(OC2OC(C)C(OC3CC(C)(O)C(O)C(C)O3)C(N(C)C)C2O)C(CCOc2ccc([N+](=O)[O-])cc2)CC(C)C(=O)C=CC(C)=CC1COC1OC(C)C(O)C(OC)C1OC (stereo not drawn) [Compound 12, 20-DH-20-O-(p-Nitrophenyl)tylosin]",MIC,"[1]; Staphylococcus aureus, X1.1",1 µg/mL
same,MIC,[14],1 µg/mL
same,MIC,"[2]; Staphylococcus aureus, X400",2 µg/mL
same,MIC,"[3]; Staphylococcus aureus, S13E",1 µg/mL
same,MIC,[4]; [23],1 µg/mL
same,MIC,"[5]; Staphylococcus epidermidis EPI2, agar dilution, read-out: MIC",0.5 µg/mL
same,MIC,"[6]; Streptococcus pyogenes, C203",2 µg/mL
same,MIC,"[15]; Streptococcus pneumoniae Park I, agar dilution, read-out: MIC",16 µg/mL
same,MIC,[7]; [24],128 µg/mL
same,MIC,Streptococcus Group 9960; GROUP9960,> 128 µg/mL
same,MIC,[8]; read-out: MIC,> 128 µg/mL
same,MIC,"[9]; Haemophilus influenzae, R252",128 µg/mL
same,MIC,Staphylococcus aureus,1.56 µg/mL
same,MIC,Streptococcus bovis 80; [18],25 µg/mL
same,MIC,[10]; read-out: MIC,> 50 µg/mL
same,MIC,[11]; read-out: MIC,> 50 µg/mL
same,MIC,[12]; read-out: MIC,> 50 µg/mL
same,MIC,Mycoplasma gallisepticum; [19],0.39 µg/mL
same,MIC,Mycoplasma synoviae; Mycoplasmopsis synoviae,1.56 µg/mL
same,MIC,Mycoplasma hyorhinis; Mycoplasma,50 µg/mL
same,MIC,Mycoplasma hyopneumoniae; [22],> 25 µg/mL

# Source: US4443436A, “C-20-Modified macrolide derivatives of the macrolide antibiotics tylosin, desmycosin, macrocin, and lactenocin” (Eli Lilly and Company, priority 1982, dated 1984)
